One block for each compound: values may come before it. Active and inactive are the calls of the source.
Legend:
Protein Wnt-3a = Protein Wnt-3a (Mus musculus, UniProt P27467); assay: antagonism of Wnt3a pathway luciferase reporter – Wnt-LIGHT cells, luminescence, selectivity assay for Gli-SUFU antagonist project, dose response (AID 651570); assay type: functional; conditions: read-out: IC50_Mean;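 note: Wnt-LIGHT reporter cells stimulated with conditioned medium from Wnt3a-producing cells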
[1] = HEK-293T viability loss after treatment – luminescence, T-cell screen hits, cytotoxicity control for TCR NF-kB inhibitor project, dose response (AID 489026); assay type: functional, cell-based;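 note: cells exposed to compound about 14 hours before the viability readout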
[2] = target: T1, Carboxy-terminal domain RNA polymerase II polypeptide A small phosphatase 1 (Homo sapiens, UniProt Q9GZU7); assay: CTDSP1 inhibitors, concentration-response, biochemical, absorbance readout, ultra-high-throughput screen actives (AID 540297); assay type: functional
T1 sequence (Q9GZU7 whole entry): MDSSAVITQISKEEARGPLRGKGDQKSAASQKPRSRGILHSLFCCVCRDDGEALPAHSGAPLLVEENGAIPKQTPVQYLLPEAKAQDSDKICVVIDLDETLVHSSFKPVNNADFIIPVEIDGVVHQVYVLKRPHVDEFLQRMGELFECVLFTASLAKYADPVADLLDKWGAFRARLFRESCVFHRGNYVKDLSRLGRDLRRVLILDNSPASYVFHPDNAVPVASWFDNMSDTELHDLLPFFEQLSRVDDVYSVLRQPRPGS

[3] = target: T2, Small ubiquitin-related modifier 1 (Homo sapiens, UniProt P63165); assay: SUMO1 protein-protein binding blockers, potency – biochemical, FRET, dose response (AID 624383); assay type: functional; conditions: read-out: IC50_Mean
T2 sequence (P63165 whole entry): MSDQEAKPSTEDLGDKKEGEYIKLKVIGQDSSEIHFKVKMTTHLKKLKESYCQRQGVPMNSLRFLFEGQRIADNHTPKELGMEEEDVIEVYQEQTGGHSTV

[4] = target: T2, Small ubiquitin-related modifier 1; assay: SUMO1 protein interaction blockers, potency – biochemical, fluorescence polarization, uHTS hits, dose response (AID 624382); assay type: functional; conditions: read-out: IC50_Mean
Galanin receptor type 3 = target: T3, Galanin receptor type 3 (Homo sapiens, UniProt O60755); assay: Fluorescence-based cell-based primary high throughput dose response assay to identify antagonists of the Galanin Receptor 3 (GalR3).; assay type: functional
T3 sequence (O60755 whole entry): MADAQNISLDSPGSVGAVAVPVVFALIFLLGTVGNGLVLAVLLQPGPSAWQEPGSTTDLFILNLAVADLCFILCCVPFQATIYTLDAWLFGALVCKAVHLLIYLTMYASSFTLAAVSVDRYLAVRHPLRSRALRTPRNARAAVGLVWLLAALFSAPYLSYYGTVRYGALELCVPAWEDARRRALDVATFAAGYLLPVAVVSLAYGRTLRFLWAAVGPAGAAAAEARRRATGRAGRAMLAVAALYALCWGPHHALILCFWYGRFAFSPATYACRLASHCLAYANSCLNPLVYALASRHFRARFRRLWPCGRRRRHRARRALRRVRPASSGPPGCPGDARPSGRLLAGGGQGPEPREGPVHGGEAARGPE

cells = assay type: functional, cell-based; conditions: HEK-CNG
[5] = target: T4, Tyrosine-protein phosphatase non-receptor type 11 (Homo sapiens, UniProt Q06124); assay: PTPN11 enzyme inhibitors – biochemical, selectivity assay for STEP inhibitor project, dose response (AID 602367); assay type: functional; conditions: read-out: IC50_Mean
T4 sequence (Q06124 whole entry): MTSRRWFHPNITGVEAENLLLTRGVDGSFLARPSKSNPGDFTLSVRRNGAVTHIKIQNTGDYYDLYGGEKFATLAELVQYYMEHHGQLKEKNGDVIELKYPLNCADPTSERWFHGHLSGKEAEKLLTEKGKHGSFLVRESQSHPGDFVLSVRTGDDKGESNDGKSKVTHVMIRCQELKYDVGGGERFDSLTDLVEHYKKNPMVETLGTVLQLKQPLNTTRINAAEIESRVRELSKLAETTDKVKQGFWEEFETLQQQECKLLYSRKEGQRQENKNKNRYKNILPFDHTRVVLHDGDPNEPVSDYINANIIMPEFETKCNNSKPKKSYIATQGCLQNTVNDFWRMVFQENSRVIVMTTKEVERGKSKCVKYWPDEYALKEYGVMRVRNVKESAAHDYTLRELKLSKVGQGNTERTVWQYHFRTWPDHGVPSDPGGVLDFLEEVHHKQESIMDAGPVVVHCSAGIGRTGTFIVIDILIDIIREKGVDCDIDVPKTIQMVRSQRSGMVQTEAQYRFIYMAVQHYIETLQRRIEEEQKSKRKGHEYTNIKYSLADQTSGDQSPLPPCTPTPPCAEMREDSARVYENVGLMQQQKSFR

[6] = target: T5, Tyrosine-protein phosphatase non-receptor type 5 (Homo sapiens, UniProt P54829); assay: PTPN5 enzyme inhibition – biochemical, fluorescence intensity, uHTS hits, confirmation (AID 602372); assay type: functional; conditions: read-out: IC50_Mean
T5 sequence (P54829 whole entry): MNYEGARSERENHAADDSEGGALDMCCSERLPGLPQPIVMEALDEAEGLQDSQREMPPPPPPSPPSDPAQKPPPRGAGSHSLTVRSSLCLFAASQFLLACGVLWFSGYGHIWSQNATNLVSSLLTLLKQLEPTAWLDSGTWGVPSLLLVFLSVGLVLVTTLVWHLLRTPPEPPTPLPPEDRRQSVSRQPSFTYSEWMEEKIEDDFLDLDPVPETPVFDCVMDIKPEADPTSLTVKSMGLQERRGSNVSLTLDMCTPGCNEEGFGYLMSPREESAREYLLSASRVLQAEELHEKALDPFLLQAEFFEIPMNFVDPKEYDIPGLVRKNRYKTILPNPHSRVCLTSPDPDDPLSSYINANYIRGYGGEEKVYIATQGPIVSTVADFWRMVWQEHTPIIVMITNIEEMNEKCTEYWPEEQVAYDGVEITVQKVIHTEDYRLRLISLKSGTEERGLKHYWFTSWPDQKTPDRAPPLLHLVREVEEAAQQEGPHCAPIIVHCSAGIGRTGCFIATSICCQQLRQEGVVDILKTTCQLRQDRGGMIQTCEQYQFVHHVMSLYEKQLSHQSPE

[7] = target: Dual specificity protein phosphatase 3 (Homo sapiens, UniProt P51452); assay: VHR phosphatase inhibition, dose response, selectivity assay for STEP inhibitor project, biochemical (AID 602374); assay type: functional; conditions: read-out: IC50_Mean
Dual specificity protein phosphatase 3, sequence (P51452 whole entry): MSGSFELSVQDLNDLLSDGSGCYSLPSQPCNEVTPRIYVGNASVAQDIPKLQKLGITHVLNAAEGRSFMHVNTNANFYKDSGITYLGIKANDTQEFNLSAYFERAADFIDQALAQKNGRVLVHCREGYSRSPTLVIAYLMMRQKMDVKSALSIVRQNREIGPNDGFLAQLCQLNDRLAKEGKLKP

[8] = loss of viability in HepG2 cells – cell-based, CellTiter-Glo, cherry-picked, cytotoxicity control for Shn3 inhibitor project, dose response (AID 624134); assay type: functional
[9] = toxicity toward HepG2 liver cells – cell-based, plate reader, cherry-pick, antagonist series, cytotoxicity control, dose response (AID 743416); assay type: functional
INS1 = assay: INS-1E survival protection against cytokine death – cell-based, luminescence, retest, dose response (AID 449756); assay type: functional; conditions: Rattus norvegicus;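 note: cell death triggered by IL-1 beta plus TNF-alpha plus IFN-gamma mixture; protective hits raise ATP signal compared with cytokine alone wells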
[10] = blockers of bursicon-stimulated LGR2 cAMP reporter – cell-based, HEK293, CRE-luciferase reporter, cherry pick, set 2, dose response (AID 743343); assay type: functional;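 note: transfected cells were stimulated with diluted bursicon conditioned medium after compound addition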
[11] = A549 cell cytotoxicity, dose response, cytotoxicity control, plate reader, cherry-pick, antagonist series (AID 743412); assay type: functional, cell-based
[12] = non-specific 3'UTR reporter inhibition in Clone20-Shn3RL – cell-based, Renilla luciferase, cherry-picked, counter-screen for Shn3 inhibitor project, dose response (AID 624133); assay type: functional
[13] = reduction of Shn3 3'UTR-driven luciferase in osteoblasts – cell-based, Clone20 osteoblasts, firefly luciferase, cherry-picked, dose response (AID 624132); assay type: functional;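 note: firefly luciferase luminescence from reporter carrying the Shn3 3'UTR in osteoblasts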
[14] = blockade of melanocortin 4 receptor signaling – cell-based, plate reader, cherry pick, counter-screen for LGR2 antagonist project, dose response (AID 743444); assay type: functional;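 note: transfected HEK 293 cells stimulated with alpha-MSH peptide; potency of inhibitors of the alpha-MSH evoked signal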
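Throughout, for EC50: target is galanin receptor GalR3 read with a cAMP biosensor in HEK293 cells.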

Protein Wnt-3a, sequence (P27467 whole entry): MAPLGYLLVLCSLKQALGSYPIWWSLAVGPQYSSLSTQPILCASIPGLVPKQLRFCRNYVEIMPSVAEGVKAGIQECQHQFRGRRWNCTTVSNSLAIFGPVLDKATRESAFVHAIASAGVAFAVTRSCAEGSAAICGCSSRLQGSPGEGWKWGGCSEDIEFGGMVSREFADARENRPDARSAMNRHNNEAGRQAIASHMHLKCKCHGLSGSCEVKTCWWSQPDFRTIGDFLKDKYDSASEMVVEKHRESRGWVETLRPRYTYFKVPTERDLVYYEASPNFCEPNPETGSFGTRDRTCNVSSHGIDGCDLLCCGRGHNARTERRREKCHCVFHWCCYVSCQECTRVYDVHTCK

SMILES: Cc1ncoc1C(=O)NC1CCCc2c1cnn2-c1ccc(C(C)(C)C)cc1 (stereo not drawn)
- IC50 (Protein Wnt-3a): 4.53 µM (active)
- IC50 [1]: > 80 µM (inactive)

SMILES: CCOC(=O)c1cc(-c2ccc(OC)cc2)nn1-c1ccccc1C(=O)O
- IC50 [2]: 14.5 µM (active)
- IC50 [3]: 21.8 µM (inactive)
- IC50 [4]: > 66.6 µM (inactive)

SMILES: O=C(NCCCl)NNc1c(Cl)cc(Cl)cc1Cl
- IC50 (Galanin receptor type 3): > 29.9 µM (inactive)
- EC50 (cells): > 29.9 µM (inactive)

SMILES: COc1c(/C=C2\SC(Nc3ccccc3Cl)=NC2=O)cccc1[N+](=O)[O-]
- IC50 (Galanin receptor type 3): 0.547 µM (active)
- EC50 (cells): > 29.9 µM (inactive)

SMILES: O=C(CSc1nc(C2CC2)nc2ccccc12)Nc1cccc(O)c1
- IC50 [3]: 20.4 µM (inactive)
- IC50 [4]: > 66.6 µM (inactive)

- IC50 [2]: 12.8 µM (active)
- IC50 [5]: 9.22 µM (active)
- IC50 [6]: 24.9 µM (inactive)
- IC50 [7]: 6.62 µM (active)
SMILES: COc1cccc(Nc2nn3c(=O)c4ccccc4nc3s2)c1

- IC50 (Protein Wnt-3a): 28.9 µM (inactive)
SMILES: CNS(=O)(=O)c1cccc(C(=O)OCC(=O)c2cc(C)n(CC3CCCO3)c2C)c1 (stereo not drawn)

SMILES: Cc1cc(C)c(C)c(S(=O)(=O)N2CCN(c3ncnc4ccccc34)CC2)c1C
- AC50 [8]: 1.91 µM (active)
- AC50 [9]: 4.26 µM (active)
- IC50 (Protein Wnt-3a): 1.96 µM (active)
- AC50 (INS1): 2.22 µM (active)
- AC50 [10]: 24.9 µM (active)
- AC50 [11]: 31.4 µM (active)
- AC50 [12]: 1.86 µM (active)
- AC50 [13]: 1.46 µM (active)
- AC50 [14]: 34.2 µM (active)

SMILES: O=C(Nc1ccc2oc(=O)ccc2c1)c1ccc(-c2ccccc2[N+](=O)[O-])o1
- IC50 [3]: 10.2 µM (active)
- IC50 [4]: > 66.6 µM (inactive)

SMILES: COc1ccc(C2=CC(c3ccc4c(c3)OCO4)c3c(c4ccccc4oc3=O)O2)cc1OC (stereo not drawn)
- IC50 (Galanin receptor type 3): 5.72 µM (active)
- EC50 (cells): > 29.9 µM (inactive)

- IC50 [5]: 5.47 µM (active)
- IC50 [6]: 15.6 µM (active)
- IC50 [7]: 0.927 µM (active)
SMILES: Cc1sc2nc(CSC(C)C(=O)Nc3ccc(Cl)cn3)nc(O)c2c1C (stereo not drawn)

SMILES: COc1ccc(N(CC(=O)NCc2cccs2)S(=O)(=O)c2ccc(C(C)=O)cc2)cc1
- AC50 [9]: > 52 µM (inactive)
